Measured values as given in ChEMBL document CHEMBL1201862, “PubChem BioAssay data set” (2004).
Each block holds one compound with its values, some of them ahead of it. Calls of active or inactive are those of the source.

Key:
[1] = blockers of HIV-1 envelope-mediated cell-cell fusion – cherry-pick, dose response (AID 652057); type: functional, cell-based
[2] = blockers of HIV-1 ZM109 envelope-driven cell-cell fusion – HeLa effector, CEM target cells, luciferase, cherry-pick, dose response (AID 652058); type: functional, cell-based;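 further: luciferase signal from HIV-1 Env mediated cell-cell fusion of effector and target cells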
[3] = off-target signal loss in HeLa-CEM21 co-culture – HeLa F-luc CTL cells, cherry-picked, counter-screen for HIV-1 Env fusion inhibitor project, dose response (AID 652040); type: functional, cell-based;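 further: potency for signal decrease marking cytotoxic or nonspecific inhibition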
[4] = HIV-1 AD8 envelope cell-cell fusion blockers – cherry-pick, dose response (AID 652062); type: functional, cell-based;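 further: luciferase signal from cell-cell fusion driven by HIV-1 clade B AD8 Env; potency is for inhibitors of fusion seen as a drop in luminescence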
[5] = target: 26S proteasome non-ATPase regulatory subunit 14 (Homo sapiens, UniProt O00487); test: inhibition of proteasome subunit RPN11 – biochemical, fluorescence polarization, uHTS hits, confirmation (AID 602368); type: functional
Chain of 26S proteasome non-ATPase regulatory subunit 14 (O00487 whole entry): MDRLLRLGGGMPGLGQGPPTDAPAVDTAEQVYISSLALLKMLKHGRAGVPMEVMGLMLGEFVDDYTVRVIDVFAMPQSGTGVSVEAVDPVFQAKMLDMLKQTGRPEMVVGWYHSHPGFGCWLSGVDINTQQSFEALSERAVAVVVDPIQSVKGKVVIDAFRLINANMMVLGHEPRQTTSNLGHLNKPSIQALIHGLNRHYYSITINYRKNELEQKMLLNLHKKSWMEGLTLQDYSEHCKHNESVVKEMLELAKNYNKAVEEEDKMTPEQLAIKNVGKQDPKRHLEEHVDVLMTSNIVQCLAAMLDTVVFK

[6] = target: 72 kDa type IV collagenase (Homo sapiens, UniProt P08253); test: Dose Response validation of uHTS RPN11 inhibitor hits using a MMP-2 Fluorescence assay.; type: functional
Chain of 72 kDa type IV collagenase (P08253 whole entry): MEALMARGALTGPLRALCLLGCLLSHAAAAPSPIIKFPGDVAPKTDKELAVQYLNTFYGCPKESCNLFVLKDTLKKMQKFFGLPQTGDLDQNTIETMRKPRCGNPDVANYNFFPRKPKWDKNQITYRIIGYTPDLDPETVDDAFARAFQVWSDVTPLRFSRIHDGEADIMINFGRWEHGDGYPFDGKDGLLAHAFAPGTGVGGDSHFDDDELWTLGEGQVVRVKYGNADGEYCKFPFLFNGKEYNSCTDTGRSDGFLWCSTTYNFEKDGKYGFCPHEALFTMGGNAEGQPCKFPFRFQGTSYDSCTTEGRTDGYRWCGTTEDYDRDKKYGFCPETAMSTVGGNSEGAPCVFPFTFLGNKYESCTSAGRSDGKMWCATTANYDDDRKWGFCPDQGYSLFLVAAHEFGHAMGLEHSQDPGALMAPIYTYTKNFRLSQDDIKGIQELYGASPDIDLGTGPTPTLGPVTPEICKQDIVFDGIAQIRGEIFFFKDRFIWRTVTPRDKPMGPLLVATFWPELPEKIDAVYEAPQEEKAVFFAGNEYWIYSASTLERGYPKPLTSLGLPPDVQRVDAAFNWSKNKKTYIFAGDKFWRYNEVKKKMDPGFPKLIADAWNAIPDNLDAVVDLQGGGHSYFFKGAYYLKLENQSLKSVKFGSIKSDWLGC

Prothrombin = Prothrombin (Bos taurus, UniProt P00735); test: thrombin protease inhibitors – biochemical, fluorescence polarization, uHTS hits, dose response (AID 602369); type: functional
Cysteine protease ATG4B = target: T1, Cysteine protease ATG4B (Homo sapiens, UniProt Q9Y4P1); type: functional;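 further: Fluorescence-based dose-response confirmation assay measuring inhibition of ATG4B activity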
T1 sequence (Q9Y4P1 whole entry): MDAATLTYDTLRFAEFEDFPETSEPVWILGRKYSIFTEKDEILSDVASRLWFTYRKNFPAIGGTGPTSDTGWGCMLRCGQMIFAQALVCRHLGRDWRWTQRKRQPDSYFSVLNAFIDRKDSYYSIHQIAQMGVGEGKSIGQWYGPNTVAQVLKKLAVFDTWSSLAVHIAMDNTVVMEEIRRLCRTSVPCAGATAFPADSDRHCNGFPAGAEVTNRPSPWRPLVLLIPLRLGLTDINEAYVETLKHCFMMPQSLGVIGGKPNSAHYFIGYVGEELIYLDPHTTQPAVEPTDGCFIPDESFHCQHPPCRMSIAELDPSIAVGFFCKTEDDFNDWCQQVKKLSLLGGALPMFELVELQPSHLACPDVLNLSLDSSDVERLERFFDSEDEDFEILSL

Phospholipase A2 = Phospholipase A2 (Homo sapiens, UniProt P04054); type: functional;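 further: confirmatory dose-response counterscreen on phospholipase A2, testing hits that came from an ultra-high-throughput screen for ATG4B inhibitors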
Chain of Phospholipase A2 (P04054 whole entry): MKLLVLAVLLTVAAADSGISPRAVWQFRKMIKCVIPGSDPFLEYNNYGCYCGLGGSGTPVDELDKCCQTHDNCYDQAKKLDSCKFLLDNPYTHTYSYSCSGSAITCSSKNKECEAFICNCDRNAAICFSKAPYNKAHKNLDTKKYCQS

[7] = viability of PTEN-deleted HCT116 cells – cell-based, HCT116 PTEN knockout, dose response (AID 1047); type: functional;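 further: HCT116 colon tumor cells with PTEN knocked out; cells exposed to compound for 60 hours before readout; potency for loss of cell viability measured by luminescence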
[8] = viability of HCT116 lacking mutant beta-catenin – cell-based, human colon tumor, dose response (AID 1045); type: functional;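 further: HCT116 colon tumor cells with beta catenin knocked out; cells exposed to compound for 60 hours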
[9] = Luminescence Cell-Based Dose Retest to Confirm Inhibitors of Cancer Stem Cells. [Related pubchem assays (depositor defined):AID2717, AID2721]; type: functional; conditions: Homo sapiens
[10] = target: T2, Histone-lysine N-methyltransferase NSD2 (Homo sapiens, UniProt O96028); type: biochemical
T2 sequence (O96028 whole entry): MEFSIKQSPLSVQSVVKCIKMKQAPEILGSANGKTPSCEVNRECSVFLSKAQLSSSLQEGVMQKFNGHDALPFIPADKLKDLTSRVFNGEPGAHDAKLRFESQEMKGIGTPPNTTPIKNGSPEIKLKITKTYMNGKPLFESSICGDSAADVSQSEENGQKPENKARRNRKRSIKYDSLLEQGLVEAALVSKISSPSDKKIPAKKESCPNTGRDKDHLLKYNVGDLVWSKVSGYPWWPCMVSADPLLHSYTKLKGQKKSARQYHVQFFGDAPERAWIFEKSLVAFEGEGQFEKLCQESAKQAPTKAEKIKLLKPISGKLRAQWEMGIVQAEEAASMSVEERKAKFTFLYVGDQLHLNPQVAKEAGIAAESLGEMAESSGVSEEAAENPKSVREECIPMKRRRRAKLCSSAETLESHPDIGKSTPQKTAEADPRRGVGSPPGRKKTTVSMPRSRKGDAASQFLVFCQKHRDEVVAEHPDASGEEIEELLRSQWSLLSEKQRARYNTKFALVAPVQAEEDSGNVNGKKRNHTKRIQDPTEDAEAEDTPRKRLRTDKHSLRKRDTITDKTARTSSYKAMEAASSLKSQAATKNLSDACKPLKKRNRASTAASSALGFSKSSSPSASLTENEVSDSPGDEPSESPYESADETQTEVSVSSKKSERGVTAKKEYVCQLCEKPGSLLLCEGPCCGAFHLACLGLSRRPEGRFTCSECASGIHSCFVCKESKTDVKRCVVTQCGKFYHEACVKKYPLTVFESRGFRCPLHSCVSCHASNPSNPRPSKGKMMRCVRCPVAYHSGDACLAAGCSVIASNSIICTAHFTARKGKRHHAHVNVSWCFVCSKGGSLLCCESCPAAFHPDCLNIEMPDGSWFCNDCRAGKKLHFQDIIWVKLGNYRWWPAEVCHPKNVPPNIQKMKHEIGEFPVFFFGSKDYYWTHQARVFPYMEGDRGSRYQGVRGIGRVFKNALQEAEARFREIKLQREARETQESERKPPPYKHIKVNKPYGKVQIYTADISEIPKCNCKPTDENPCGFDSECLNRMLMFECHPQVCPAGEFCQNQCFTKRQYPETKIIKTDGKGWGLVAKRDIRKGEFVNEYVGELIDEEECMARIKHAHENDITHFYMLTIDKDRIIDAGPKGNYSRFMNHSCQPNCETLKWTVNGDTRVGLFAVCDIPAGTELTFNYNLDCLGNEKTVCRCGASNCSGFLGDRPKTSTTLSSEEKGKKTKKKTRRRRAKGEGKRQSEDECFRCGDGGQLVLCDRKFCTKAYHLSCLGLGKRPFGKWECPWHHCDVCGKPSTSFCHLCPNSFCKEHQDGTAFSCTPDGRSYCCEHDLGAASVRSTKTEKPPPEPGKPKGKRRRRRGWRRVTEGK

Galanin receptor type 3 = target: T3, Galanin receptor type 3 (Homo sapiens, UniProt O60755); test: Fluorescence-based cell-based primary high throughput dose response assay to identify antagonists of the Galanin Receptor 3 (GalR3).; type: functional
T3 sequence (O60755 whole entry): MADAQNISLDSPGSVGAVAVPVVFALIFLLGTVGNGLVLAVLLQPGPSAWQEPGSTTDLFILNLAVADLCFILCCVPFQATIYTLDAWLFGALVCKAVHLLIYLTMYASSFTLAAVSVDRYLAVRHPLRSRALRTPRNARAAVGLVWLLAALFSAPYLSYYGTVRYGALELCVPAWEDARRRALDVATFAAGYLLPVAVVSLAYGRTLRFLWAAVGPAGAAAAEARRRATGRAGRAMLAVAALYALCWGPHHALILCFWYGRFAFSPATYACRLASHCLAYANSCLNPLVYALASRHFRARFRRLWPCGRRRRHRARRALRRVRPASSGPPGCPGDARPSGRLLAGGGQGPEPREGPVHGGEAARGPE

cells = type: functional, cell-based; conditions: HEK-CNG

Compound: CC[C@@]1(C(=O)OC)N[C@H](CN(C)C(=O)c2ccc(C(C)(C)C)cc2)[C@@H]2C(=O)N(Cc3ccccc3)C(=O)[C@@H]21
AC50 [1]: 6.06 µM (active)
AC50 [2]: 8.17 µM (active)
AC50 [3]: 18.3 µM (active)
AC50 [4]: 10.1 µM (active)

IC50 [5]: 4.18 µM (active)
IC50 [6]: > 100 µM (inactive)
IC50 (Prothrombin): 7.22 µM (active)
Compound: CC1=Nc2ccccc2/C1=C\c1nc(-c2ccccc2)oc1O

IC50 (Cysteine protease ATG4B): 8.92 µM (active)
IC50 (Phospholipase A2): 1.18 µM (active)
Compound: O=C(CSc1nc2ccccc2c(=O)n1-c1ccc(Cl)cc1)N/N=C/C=C/c1ccccc1[N+](=O)[O-]

Compound: C=C(C)Cn1c(SCC(=O)N/N=C/c2c(O)ccc3ccccc23)nc2ccccc2c1=O
EC50 [7]: 19.5 µM (active)
EC50 [8]: 16.6 µM (active)
AC50 [9]: 3.05 µM (active)
IC50 (Cysteine protease ATG4B): 13.3 µM (active)
IC50 (Phospholipase A2): 7.98 µM (active)

Compound: CCN(CC)CCCNC(=O)c1cc2c(Cl)nc3ccccc3c2s1
AC50 [9]: 1.58 µM (active)
AC50 [10]: 16.8 µM (active)

Compound: CC(C)Cn1c(N)c(C(=O)COC(=O)/C=C/c2ccccc2)c(=O)n(C)c1=O
IC50 (Galanin receptor type 3): > 29.9 µM (inactive)
EC50 (cells): > 29.9 µM (inactive)
